Measurements published in patent US9198433B2, “Substituted benzene fungicides” (E I DU PONT DE NEMOURS AND COMPANY, priority 2007, dated 2015).
Where two headings read alike, the source gives them in different places. Marks after values point to notes of the source that are not given here.

How the values were obtained:
Assay type in all cases: in vivo
[1] = system: Puccinia recondita f. sp. tritici; experiment: Test B: wheat leaf rust, preventive spray on wheat seedlings, disease rating
Procedure, shortened: (§1)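 Preventive spray to run-off on wheat seedlings; test suspension in acetone:water 50:50 plus 250 ppm surfactant, acetone predissolution at 3% of final volume. Dose 200 ppm (≈500 g/ha) by default, 40 ppm or 50 ppm where flagged.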

[2] = system: Septoria tritici; experiment: Test D: wheat leaf blotch, preventive spray on wheat seedlings, disease rating
Procedure, shortened: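 Preventive test: one day after run-off spraying (200 ppm, equal to 500 g/ha, unless marked 40 or 50 ppm; acetone/water plus 250 ppm Trem 014), seedlings received S. tritici spore inoculum. Disease scored after 48 h at 24 °C in saturated air and 19 further days at 20 °C.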

[3] = system: Fusarium graminearum; conditions: wheat head scab
[4] = system: Alternaria solani; experiment: Test H: tomato early blight, preventive spray on tomato seedlings, disease rating
Procedure, shortened: (§2)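 Disease ratings follow a preventive run-off spray of tomato seedlings. Compounds were first dissolved in acetone (3% of volume), then suspended in 50/50 acetone/water containing 250 ppm Trem 014. Test level 200 ppm (equivalent to 500 g/ha) except where marked * for 40 ppm or ** for 50 ppm.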

[5] = system: Septoria nodorum; experiment: Test C: wheat glume blotch, preventive spray on wheat seedlings, disease rating
Procedure, shortened: as §1

[6] = system: Botrytis cinerea; experiment: Test F: tomato Botrytis, preventive spray on tomato seedlings, disease rating
Procedure, shortened: as §2

[7] = system: Erysiphe graminis f. sp. tritici; experiment: Test A: wheat powdery mildew, preventive spray on wheat seedlings, disease rating
Procedure, shortened: as §1

[8] = 200 ppm, 100 = 100% disease control, 0 = no control relative to controls
[9] = 40 ppm (*), 100 = 100% disease control, 0 = no control relative to controls

With COC(=O)NOc1cc(-c2cccc(Cl)c2)ccc1Cl [Cmpd 19] the “Percentage Disease Control, Test B” value ([1]; 40 ppm (*)) was 99* %, the “Percentage Disease Control, Test D” value ([2]; 40 ppm (*)) was 98* % and the “Percentage Disease Control, Test E” value ([3]; 40 ppm (*)) was 99* %. The “Percentage Disease Control, Test H” value ([4]; 40 ppm (*)) was 63* %, the “Percentage Disease Control, Test C” value ([5]; 40 ppm (*)) was 97* % and the “Percentage Disease Control, Test F” value ([6]; 40 ppm (*)) was 0* %. The “Percentage Disease Control, Test A” value ([7]; 40 ppm (*)) was 99* %.

With COC(=O)NCc1cc(-c2ccn(S(=O)(=O)N(C)C)n2)ccc1Cl [Cmpd 35] the “Percentage Disease Control, Test B” value ([1]; 200 ppm) was 76%, the “Percentage Disease Control, Test D” value ([2]; 200 ppm) was 100% and the “Percentage Disease Control, Test E” value ([3]; 200 ppm) was 0%. For the same compound, the “Percentage Disease Control, Test H” value ([4]; 200 ppm) was 0%, the “Percentage Disease Control, Test C” value ([5]; 200 ppm) was 0% and the “Percentage Disease Control, Test F” value ([6]; 200 ppm) was 0%. For the same compound, the “Percentage Disease Control, Test A” value ([7]; 200 ppm) was 76%.

COC(=O)NCc1cc(-c2ccn(CCCC(c3ccc(F)cc3)c3ccc(F)cc3)n2)ccc1Cl [Cmpd 36] was tested, and the “Percentage Disease Control, Test B” value ([1]; 40 ppm (*)) was 99* %, the “Percentage Disease Control, Test D” value ([2]; 40 ppm (*)) was 97* % and the “Percentage Disease Control, Test E” value ([3]; 200 ppm) was 26%. For the same compound, the “Percentage Disease Control, Test H” value ([4]; 200 ppm) was 78%, the “Percentage Disease Control, Test C” value ([5]; 40 ppm (*)) was 99* % and the “Percentage Disease Control, Test F” value ([6]; 200 ppm) was 0%. For the same compound, the “Percentage Disease Control, Test A” value ([7]; 40 ppm (*)) was 93* %.

With COC(=O)NCc1cc(-c2ccn(Cc3ccccc3Cl)n2)ccc1Cl [Cmpd 37] the “Percentage Disease Control, Test B” value ([1]; 40 ppm (*)) was 100* %, the “Percentage Disease Control, Test D” value ([2]; 40 ppm (*)) was 100* % and the “Percentage Disease Control, Test E” value ([3]; 40 ppm (*)) was 99* %. For the same compound, the “Percentage Disease Control, Test H” value ([4]; 200 ppm) was 0%, the “Percentage Disease Control, Test C” value ([5]; 40 ppm (*)) was 100* % and the “Percentage Disease Control, Test F” value ([6]; 200 ppm) was 0%. The “Percentage Disease Control, Test A” value ([7]; 40 ppm (*)) was 99* %.

With COC(=O)NCc1cc(-c2ccnc(C3CC3)n2)ccc1Cl [Cmpd 137] the “Percentage Disease Control, Test B” value [1, 8] was 99%, the “Percentage Disease Control, Test D” value [2, 9] was 97* % and the “Percentage Disease Control, Test H” value [4, 8] was 15%. The “Percentage Disease Control, Test C” value [5, 9] was 90* %, the “Percentage Disease Control, Test F” value [6, 8] was 0% and the “Percentage Disease Control, Test A” value [7, 8] was 95%.

In the case of COC(=O)NCc1cc(-c2ccnc(C(F)(F)F)n2)ccc1Cl [Cmpd 138], the “Percentage Disease Control, Test B” value [1, 8] is reported as 48%, the “Percentage Disease Control, Test D” value [2, 8] is reported as 77% and the “Percentage Disease Control, Test H” value [4, 8] is reported as 0%. For the same compound, the “Percentage Disease Control, Test C” value [5, 8] was 92%, the “Percentage Disease Control, Test F” value [6, 8] was 0% and the “Percentage Disease Control, Test A” value [7, 8] was 56%.

With COC(=O)NCc1cc(-c2ccnc(OCc3ccccc3)n2)ccc1Cl [Cmpd 139] the “Percentage Disease Control, Test B” value [1, 9] was 100* %, the “Percentage Disease Control, Test D” value [2, 9] was 92* % and the “Percentage Disease Control, Test H” value [4, 8] was 26%. The “Percentage Disease Control, Test C” value [5, 9] was 99* %, the “Percentage Disease Control, Test F” value [6, 8] was 0% and the “Percentage Disease Control, Test A” value [7, 8] was 87%.

With COC(=O)NCc1cc(-c2ccnn2-c2ccccc2)ccc1Cl [Cmpd 140] the “Percentage Disease Control, Test B” value [1, 8] was 32%, the “Percentage Disease Control, Test D” value [2, 8] was 96% and the “Percentage Disease Control, Test H” value [4, 8] was 0%. The “Percentage Disease Control, Test C” value [5, 8] was 0%, the “Percentage Disease Control, Test F” value [6, 8] was 0% and the “Percentage Disease Control, Test A” value [7, 8] was 0%.

For COC(=O)NCc1cc(-c2cc(C(F)(F)F)nn2C)ccc1Cl [Cmpd 141], the “Percentage Disease Control, Test B” value [1, 8] was 89%, the “Percentage Disease Control, Test D” value [2, 8] was 98% and the “Percentage Disease Control, Test H” value [4, 8] was 0%. For the same compound, the “Percentage Disease Control, Test C” value [5, 8] was 82%, the “Percentage Disease Control, Test F” value [6, 8] was 0% and the “Percentage Disease Control, Test A” value [7, 8] was 96%.

With COC(=O)NCc1cc(-c2cc(C(F)(F)F)nn2CCC(C)(C)C)ccc1Cl [Cmpd 142] the “Percentage Disease Control, Test B” value [1, 8] was 55%, the “Percentage Disease Control, Test D” value [2, 8] was 92% and the “Percentage Disease Control, Test H” value [4, 8] was 16%. The “Percentage Disease Control, Test C” value [5, 8] was 0%, the “Percentage Disease Control, Test F” value [6, 8] was 0% and the “Percentage Disease Control, Test A” value [7, 8] was 85%.

CCCn1nc(C(F)(F)F)cc1-c1ccc(Cl)c(CNC(=O)OC)c1 [Cmpd 144] was tested, and the “Percentage Disease Control, Test B” value [1, 8] was 19%, the “Percentage Disease Control, Test D” value [2, 8] was 95% and the “Percentage Disease Control, Test H” value [4, 8] was 0%. For the same compound, the “Percentage Disease Control, Test C” value [5, 8] was 0%, the “Percentage Disease Control, Test F” value [6, 8] was 0% and the “Percentage Disease Control, Test A” value [7, 8] was 97%.

COC(=O)NCc1cc(-c2c[nH]nn2)ccc1Cl [Cmpd 145] was tested, and the “Percentage Disease Control, Test B” value [1, 8] was 0%, the “Percentage Disease Control, Test D” value [2, 8] was 30% and the “Percentage Disease Control, Test H” value [4, 8] was 15%. The “Percentage Disease Control, Test C” value [5, 8] was 0%, the “Percentage Disease Control, Test F” value [6, 8] was 0% and the “Percentage Disease Control, Test A” value [7, 8] was 0%.

In the case of COC(=O)NCc1cc(-c2cn(-c3ccc(Cl)cc3)nn2)ccc1Cl [Cmpd 148], the “Percentage Disease Control, Test B” value [1, 9] is reported as 90* %, the “Percentage Disease Control, Test D” value [2, 9] is reported as 98* % and the “Percentage Disease Control, Test H” value [4, 8] is reported as 0%. For the same compound, the “Percentage Disease Control, Test C” value [5, 8] was 90%, the “Percentage Disease Control, Test F” value [6, 8] was 46% and the “Percentage Disease Control, Test A” value [7, 8] was 85%.

COC(=O)NCc1cc(-c2cn(Cc3ccc(C)cc3)nn2)ccc1Cl [Cmpd 149] was tested, and the “Percentage Disease Control, Test B” value [1, 8] was 99%, the “Percentage Disease Control, Test D” value [2, 8] was 99% and the “Percentage Disease Control, Test H” value [4, 8] was 0%. For the same compound, the “Percentage Disease Control, Test C” value [5, 8] was 100%, the “Percentage Disease Control, Test F” value [6, 8] was 0% and the “Percentage Disease Control, Test A” value [7, 8] was 0%.

For COC(=O)NCc1cc(-c2ccn(-c3ccc(C(C)=O)cc3)n2)ccc1Cl [Cmpd 150], the “Percentage Disease Control, Test B” value [1, 8] was 98%, the “Percentage Disease Control, Test D” value [2, 8] was 99% and the “Percentage Disease Control, Test H” value [4, 8] was 92%. For the same compound, the “Percentage Disease Control, Test C” value [5, 8] was 100%, the “Percentage Disease Control, Test F” value [6, 8] was 0% and the “Percentage Disease Control, Test A” value [7, 8] was 71%.

In the case of COC(=O)NCc1cc(C(C)=NOC[Si](C)(C)C)ccc1Cl [Compound 6], the “Percentage Disease Control, Test B” value ([1]; 40 ppm (*)) is reported as 100* %, the “Percentage Disease Control, Test D” value ([2]; 40 ppm (*)) is reported as 100* % and the “Percentage Disease Control, Test E” value ([3]; 40 ppm (*)) is reported as 68* %. For the same compound, the “Percentage Disease Control, Test C” value ([5]; 40 ppm (*)) was 96* % and the “Percentage Disease Control, Test A” value ([7]; 40 ppm (*)) was 99* %.

CC[Si](C)(C)CON=C(C)c1ccc(Cl)c(CNC(=O)OC)c1 [Compound 7] was tested, and the “Percentage Disease Control, Test B” value ([1]; 40 ppm (*)) was 100* %, the “Percentage Disease Control, Test D” value ([2]; 40 ppm (*)) was 100* % and the “Percentage Disease Control, Test E” value ([3]; 40 ppm (*)) was 0* %. The “Percentage Disease Control, Test C” value ([5]; 40 ppm (*)) was 99* % and the “Percentage Disease Control, Test A” value ([7]; 40 ppm (*)) was 100* %.

With COC(=O)NCc1cc(C(C)=NOC[Si](C)(C)c2ccccc2)ccc1Cl [Compound 15] the “Percentage Disease Control, Test B” value ([1]; 40 ppm (*)) was 100* %, the “Percentage Disease Control, Test D” value ([2]; 40 ppm (*)) was 100* % and the “Percentage Disease Control, Test H” value ([4]; 200 ppm) was 33%. For the same compound, the “Percentage Disease Control, Test C” value ([5]; 40 ppm (*)) was 100* %, the “Percentage Disease Control, Test F” value ([6]; 200 ppm) was 0% and the “Percentage Disease Control, Test A” value ([7]; 40 ppm (*)) was 100* %.

For COC(=O)NCc1cc(C(C)=NOC[Si](C)(C)c2ccc(F)cc2)ccc1Cl [Compound 16], the “Percentage Disease Control, Test B” value ([1]; 40 ppm (*)) was 100* %, the “Percentage Disease Control, Test D” value ([2]; 40 ppm (*)) was 100* % and the “Percentage Disease Control, Test H” value ([4]; 40 ppm (*)) was 95* %. For the same compound, the “Percentage Disease Control, Test C” value ([5]; 40 ppm (*)) was 100* %, the “Percentage Disease Control, Test F” value ([6]; 200 ppm) was 67% and the “Percentage Disease Control, Test A” value ([7]; 40 ppm (*)) was 99* %.

In the case of COC(=O)NCc1cc(C(C)=NOC[Si](C)(C)Cc2ccccc2)ccc1Cl [Compound 17], the “Percentage Disease Control, Test B” value ([1]; 40 ppm (*)) is reported as 99* %, the “Percentage Disease Control, Test D” value ([2]; 40 ppm (*)) is reported as 100* % and the “Percentage Disease Control, Test H” value ([4]; 200 ppm) is reported as 38%. For the same compound, the “Percentage Disease Control, Test C” value ([5]; 200 ppm) was 100%, the “Percentage Disease Control, Test F” value ([6]; 200 ppm) was 0% and the “Percentage Disease Control, Test A” value ([7]; 200 ppm) was 67%.

With COC(=O)NCc1cc(-c2cnn(Cc3ccc(C)cc3)n2)ccc1Cl [Compound 146] the “Percentage Disease Control, Test B” value [1, 8] was 93%, the “Percentage Disease Control, Test D” value [2, 8] was 93% and the “Percentage Disease Control, Test H” value [4, 8] was 22%. For the same compound, the “Percentage Disease Control, Test C” value [5, 8] was 99%, the “Percentage Disease Control, Test F” value [6, 8] was 0% and the “Percentage Disease Control, Test A” value [7, 8] was 52%.

COC(=O)NCc1cc(-c2cnn(-c3ccc(Cl)cc3)n2)ccc1Cl [Compound 147] was tested, and the “Percentage Disease Control, Test B” value [1, 9] was 99* %, the “Percentage Disease Control, Test D” value [2, 9] was 100* % and the “Percentage Disease Control, Test H” value [4, 8] was 15%. For the same compound, the “Percentage Disease Control, Test C” value [5, 9] was 99* %, the “Percentage Disease Control, Test F” value [6, 8] was 61% and the “Percentage Disease Control, Test A” value [7, 9] was 100* %.
